Biological target: T1, human TREM2 (Homo sapiens, UniProt Q9NZC2)
T1 construct: expressed in transfected cells; host or cells: HEK293T (HEK293T-hTREM2 cells)
Experiment: Cellular phosphorylation of Syk (AlphaLisa) in HEK293T-hTREM2 cells, TREM2 agonist potency
Format: cell-based
Details: HEK293 cells expressing human TREM2 and DAP12, pSyk AlphaLisa
Description: In Vitro Measurement of Triggering Receptor Expressed on Myeloid Cells 2 Activity Using Cellular Phosphorylation of Spleen Tyrosine Kinase (“Syk”) Assays
Measurement of TREM2 agonist potency was done using a HEK cell line expressing human TREM2 and DAP12 (HEK293T-hTREM2 cells). Binding of small molecules to, and activation of, TREM2 increases the phosphorylation of Syk. The resultant levels of Syk phosphorylation are measured using a commercial AlphaLisa reagent kit. To perform the assay, HEK-hTREM2 cells were plated at 14,000 cells per well in a 384 well plate, in 25 μL of complete growth media and incubated at 37° C., 5% CO2 for 20-24 hours.
Prior to the assay, test compounds were diluted in the 384 well plates in assay buffer and allowed to equilibrate for 30 minutes. Growth media was removed from cell plates by inversion on blotting paper, and 25 μL of test articles in assay buffer was added to cells. Cells were incubated for 45 minutes at room temperature. After 45 minutes, assay buffer was removed and 10 μL of lysis buffer was added. Plates were shaken for 20 minutes at 350 RPM at room temperature. After complete lysis, AlphaLisa reagents were added to the lysate, and fluourescence intensity was measured using a Perkin Elmer Envision plate reader. Intensities were used to generate a standard curve, and % activation was calculated. Curve fitting was performed using Prism v9 software, log(agonist) vs response—variable slope (four parameters), and EC50s were calculated from the curve fit.
The results presented in Table D have been generated with the in vitro assay described above. This assay may be used to test any of the compounds described herein to assess and characterize a compound's ability to act as an agonist of TREM2.

T1 sequence (Q9NZC2 19-230): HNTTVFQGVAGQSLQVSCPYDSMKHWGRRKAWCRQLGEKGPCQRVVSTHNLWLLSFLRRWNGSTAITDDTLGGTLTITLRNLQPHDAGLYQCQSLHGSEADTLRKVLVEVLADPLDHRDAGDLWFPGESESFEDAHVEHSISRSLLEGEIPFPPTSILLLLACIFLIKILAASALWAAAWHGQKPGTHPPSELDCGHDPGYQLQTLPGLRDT
T1 sequence (O43914 22-113 partner): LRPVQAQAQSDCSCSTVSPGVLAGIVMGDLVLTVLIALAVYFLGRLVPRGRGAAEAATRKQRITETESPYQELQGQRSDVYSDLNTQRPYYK

Cc1cc2c(-c3ccc(Cl)cc3)nn(-c3ccnc(NC4CC(F)(F)C4)c3)c(=O)c2nc1C [I-117, 5-(4-chlorophenyl)-7-(2-((3,3-difluorocyclobutyl)amino)pyridin-4-yl)-2,3-dimethylpyrido[2,3-d]pyridazin-8 (7H)-one]
EC50 (Table D-2): 0.5 to 3 µM

Cc1cc2c(-c3ccc(Cl)cc3)nn(-c3ccc(N(C)C4COC4)nc3)c(=O)c2nc1C [I-119, 5-(4-chlorophenyl)-2,3-dimethyl-7-[6-[methyl(oxetan-3-yl)amino]-3-pyridyl]pyrido[2,3-d]pyridazin-8-one; formic acid]
EC50 (Table D-2): 0.5 to 3 µM

Cc1cc2c(-c3ccc(Cl)cc3)nn(-c3ccnc(C4CCN(C(=O)OC(C)(C)C)CC4)c3)c(=O)c2cc1C [compound 22, tert-butyl 4-(4-(4-(4-chlorophenyl)-6,7-dimethyl-1-oxophthalazin-2(1H)-yl)pyridin-2-yl)piperidine-1-carboxylate]
EC50 (Table D): 0.5 to 3 µM

Cc1nc2c(=O)n(CCc3ccccc3)nc(-c3ccc(Cl)c(Cl)c3)c2s1 [compound 32, 7-(3,4-dichlorophenyl)-2-methyl-5-phenethylthiazolo[4,5-d]pyridazin-4(5H)-one]
EC50 (Table D): 3 to 100 µM

Cc1cc2c(-c3ccc(Cl)c(Cl)c3)nn(-c3ccnc(C4COC4)c3)c(=O)c2cc1C [I-107, 4-(3,4-dichlorophenyl)-6,7-dimethyl-2-[2-(oxetan-3-yl)-4-pyridyl]phthalazin-1-one]
EC50 (Table D-2): 0.5 to 3 µM

Cc1cc2c(-c3ccc(Cl)cc3)nn(-c3ccnc(C4CNC4)c3)c(=O)c2cc1C [compound 16, 2-(2-(azetidin-3-yl)pyridin-4-yl)-4-(4-chlorophenyl)-6,7-dimethylphthalazin-1(2H)-one]
EC50 (Table D): 0.5 to 3 µM

CC(C)n1ccc(-n2nc(-c3ccc(Cl)cc3)c3cc(Cl)c(Cl)cc3c2=O)cc1=O [compound 11, 6,7-dichloro-4-(4-chlorophenyl)-2-(1-isopropyl-2-oxo-1,2-dihydropyridin-4-yl)phthalazin-1(2H)-one]
EC50 (Table D): 0.5 to 3 µM

CNC(Cn1nc(-c2ccc(Cl)cc2)c2sc(C)nc2c1=O)c1ccc(Cl)cc1 (stereo not shown) [compound 25, 7-(4-chlorophenyl)-5-(2-(4-chlorophenyl)-2-(methylamino)ethyl)-2-methylthiazolo[4,5-d]pyridazin-4(5H)-one]
EC50 (Table D): 3 to 100 µM

Cc1cc2c(-c3ccc(Cl)cc3)nn(-c3ccnc(NC4COC4)c3)c(=O)c2nc1C [I-116, 5-(4-chlorophenyl)-2,3-dimethyl-7-(2-(oxetan-3-ylamino)pyridin-4-yl)pyrido[2,3-d]pyridazin-8 (7H)-one]
EC50 (Table D-2): 0.5 to 3 µM

CC(=O)N1CCC(n2nc(-c3ccc(Cl)cc3)c3cc(Cl)c(Cl)cc3c2=O)CC1 [compound 13, 2-(1-acetylpiperidin-4-yl)-6,7-dichloro-4-(4-chlorophenyl)phthalazin-1(2H)-one]
EC50 (Table D): 3 to 100 µM

Cc1nc2c(=O)n(CC(O)c3ccc(Cl)cc3)nc(-c3ccc(Cl)cc3)c2s1 (stereo not shown) [compound 26, 7-(4-chlorophenyl)-5-(2-(4-chlorophenyl)-2-hydroxyethyl)-2-methylthiazolo[4,5-d]pyridazin-4(5H)-one]
EC50 (Table D): 3 to 100 µM

Cc1cc2c(-c3ccc(Cl)cc3)nn(-c3ccc(NC4COC4)nc3)c(=O)c2nc1C [I-118, 5-(4-chlorophenyl)-2,3-dimethyl-7-[6-(oxetan-3-ylamino)-3-pyridyl]pyrido [2,3-d]pyridazin-8-one; formic acid]
EC50 (Table D-2): 0.5 to 3 µM

Cc1cc2c(-c3ccc(Cl)cc3)nn(-c3ccnc(C4COC4)c3)c(=O)c2cc1C [compound 14, 4-(4-chlorophenyl)-6,7-dimethyl-2-(2-(oxetan-3-yl)pyridin-4-yl)phthalazin-1(2H)-one]
EC50 (Table D): 0.5 to 3 µM

Cc1cc2c(-c3ccc(Cl)cc3)nn(-c3ccc(OC(F)(F)F)cc3)c(=O)c2nc1C [compound 1, 5-(4-chlorophenyl)-2,3-dimethyl-7-(4-(trifluoromethoxy)phenyl)pyrido[2,3-d]pyridazin-8 (7H)-one]
EC50 (Table D): 0.5 to 3 µM

Cc1cc2c(-c3ccc(Cl)cc3)nn(-c3ccnc(N4CCN(C(=O)OC(C)(C)C)CC4)c3)c(=O)c2cc1C [compound 18, tert-butyl 4-(4-(4-(4-chlorophenyl)-6,7-dimethyl-1-oxophthalazin-2(1H)-yl)pyridin-2-yl)piperazine-1-carboxylate]
EC50 (Table D): 0.5 to 3 µM

Cc1ccc2c(-c3ccc(Cl)cc3)nn(-c3ccc(OC(F)(F)F)cc3)c(=O)c2n1 [compound 23, 5-(4-chlorophenyl)-2-methyl-7-(4-(trifluoromethoxy)phenyl)pyrido[2,3-d]pyridazin-8(7H)-one]
EC50 (Table D): 0.5 to 3 µM

Cc1ccc(-c2nn(CCc3ccccc3)c(=O)c3nc(C)sc23)cc1 [compound 34, 2-methyl-5-phenethyl-7-(p-tolyl)thiazolo[4,5-d]pyridazin-4(5H)-one]
EC50 (Table D): 3 to 100 µM

Cc1cc2c(-c3ccc(Cl)cc3)nn(-c3ccnc(C4CCC4)c3)c(=O)c2cc1C [compound 15, 4-(4-chlorophenyl)-2-(2-cyclobutylpyridin-4-yl)-6,7-dimethylphthalazin-1(2H)-one]
EC50 (Table D): 0.5 to 3 µM

CC(C)C(=O)Nc1nc2c(=O)n(CCc3ccccc3)nc(-c3ccc(Cl)cc3)c2s1 [compound 35, N-[7-(4-chlorophenyl)-4-oxo-5-(2-phenylethyl)thiazolo[4,5-d]pyridazin-2-yl]-2-methyl-propanamide]
EC50 (Table D): 3 to 100 µM

O=c1c2nc(NCCc3ccccc3)sc2c(-c2ccc(Cl)cc2)nn1CCc1ccccc1 [compound 37, 7-(4-chlorophenyl)-5-(2-phenylethyl)-2-(2-phenylethylamino)thiazolo[4,5-d]pyridazin-4-one]
EC50 (Table D): 3 to 100 µM

Cc1cc2c(-c3ccc(Cl)cc3)nn(-c3ccnc(OC4CNC4)c3)c(=O)c2nc1C [I-94, 7-[2-(azetidin-3-yloxy)-4-pyridyl]-5-(4-chlorophenyl)-2,3-dimethyl-pyrido[2,3-d]pyridazin-8-one; 2,2,2-trifluoroacetic acid]
EC50 (Table D-2): 0.5 to 3 µM

Cc1cc2c(-c3ccc(Cl)cc3)nn(-c3ccnc(NC4CCOC4)c3)c(=O)c2nc1C (racemic) [I-113, 5-(4-chlorophenyl)-2,3-dimethyl-7-(2-((tetrahydrofuran-3-yl)amino)pyridin-4-yl)pyrido[2,3-d]pyridazin-8 (7H)-one]
EC50 (Table D-2): 0.5 to 3 µM

Cc1nc2c(=O)n(CCc3ccccc3)nc(-c3ccc(O)cc3)c2s1 [compound 39, 7-(4-hydroxyphenyl)-2-methyl-5-phenethylthiazolo[4,5-d]pyridazin-4(5H)-one]
EC50 (Table D): 3 to 100 µM

Cc1nc2c(=O)n(CCc3ccccc3)nc(-c3ccc(Cl)cc3)c2s1 [compound 28, 7-(4-chlorophenyl)-2-methyl-5-phenethylthiazolo[4,5-d]pyridazin-4(5H)-one]
EC50 (Table D): 3 to 100 µM

Cc1nc2c(=O)n(-c3ccc(OC(F)(F)F)cc3)nc(-c3ccc(Cl)cc3)c2s1 [compound 41, 7-(4-chlorophenyl)-2-methyl-5-(4-(trifluoromethoxy)phenyl)thiazolo[4,5-d]pyridazin-4(5H)-one]
EC50 (Table D): 3 to 100 µM

Cc1nc2c(=O)n(C(C)Cc3ccc(Cl)cc3)nc(-c3ccc(Cl)cc3)c2s1 (stereo not shown) [compound 30, 7-(4-chlorophenyl)-5-(1-(4-chlorophenyl)propan-2-yl)-2-methylthiazolo[4,5-d]pyridazin-4 (5H)-one]
EC50 (Table D): 3 to 100 µM

COc1ccc(-c2nn(-c3ccnc(C4COC4)c3)c(=O)c3cc(C)c(C)cc23)cc1 [I-108, 4-(4-methoxyphenyl)-6,7-dimethyl-2-[2-(oxetan-3-yl)-4-pyridyl]phthalazin-1-one]
EC50 (Table D-2): 0.5 to 3 µM

Cc1nc2c(=O)n(-c3ccc(C(=O)O)cc3)nc(-c3ccc(Cl)cc3)c2s1 [compound 42, 4-(7-(4-chlorophenyl)-2-methyl-4-oxothiazolo[4,5-d]pyridazin-5(4H)-yl)benzoic acid]
EC50 (Table D): 0.05 to 0.5 µM

CN1CCC(n2nc(-c3ccc(Cl)cc3)c3cc(Cl)c(Cl)cc3c2=O)CC1=O (stereo not shown) [compound 21, 6,7-dichloro-4-(4-chlorophenyl)-2-(1-methyl-2-oxopiperidin-4-yl)phthalazin-1(2H)-one]
EC50 (Table D): 3 to 100 µM

CC(C)Oc1cc(-n2nc(-c3ccc(Cl)cc3)c3cc(Cl)c(Cl)cc3c2=O)ccn1 [compound 12, 6,7-dichloro-4-(4-chlorophenyl)-2-(2-isopropoxypyridin-4-yl)phthalazin-1(2H)-one]
EC50 (Table D): 0.5 to 3 µM

Cc1nc2c(=O)n(CCc3ccccc3)nc(-c3ccccc3)c2s1 [compound 29, 2-methyl-5-phenethyl-7-phenylthiazolo[4,5-d]pyridazin-4(5H)-one]
EC50 (Table D): 3 to 100 µM

O=c1c2nc(NCC3CC3)sc2c(-c2ccc(Cl)cc2)nn1CCc1ccccc1 [compound 36, 7-(4-chlorophenyl)-2-(cyclopropylmethylamino)-5-(2-phenylethyl)thiazolo[4,5-d]pyridazin-4-one]
EC50 (Table D): 3 to 100 µM

Cc1cc2c(-c3ccc(Cl)cc3F)nn(-c3ccnc(C4COC4)c3)c(=O)c2cc1C [I-111, 4-(4-chloro-2-fluoro-phenyl)-6,7-dimethyl-2-[2-(oxetan-3-yl)-4-pyridyl]phthalazin-1-one]
EC50 (Table D-2): 0.5 to 3 µM

Cc1cc2c(-c3ccc(Cl)cc3)nn(-c3ccnc(C4COC4)c3)c(=O)c2nc1C [I-112, 5-(4-chlorophenyl)-2,3-dimethyl-7-[2-(oxetan-3-yl)-4-pyridyl]pyrido [2,3-d]pyridazin-8-one]
EC50 (Table D-2): 3 to 100 µM

Reference: patent US20260152484A1, “HETEROCYCLIC COMPOUNDS AS TRIGGERING RECEPTOR EXPRESSED ON MYELOID CELLS 2 AGONISTS” (Vigil Neuroscience, Inc., priority 2021, published 2026)
